Results on 2 molecules are retold here after patent publication US20050238706A1, “Pharmaceutically active lipid based formulation of SN-38” (NeoPharm, Inc., priority 2002, published 2005).

The test system of series [1] is Capan-1 human pancreatic cancer cells. Briefly: Therapeutic efficacy in Capan-1 xenograft, SCID mice. As to conditions: day 28 post treatment, n = 5. The format is in vivo. The source says:
(§1) Either female CD2F1 (6-8 weeks old) mice or female C.B-17 SCID mice (4-6 weeks old) were obtained from the vendor and maintained as described previously. The CD2F1 mice were transplanted with P388 murine leukemia tumor cells, whereas the SCID mice were transplanted with HT-29 human colon cancer cells, Capan-1 human pancreatic cancer cells and MX-1 human breast cancer cells. After a suitable waiting period (waiting period varied based on the tumor models), each mouse received intravenous injection via tail vein of placebo liposomes, LE-SN38 or CPT-11 at pre-determined dose levels.

Series [2] deals with HT-29 human colon cancer cells. Nature of the series: Therapeutic efficacy in HT-29 xenograft, SCID mice. The format is in vivo. As to conditions: 8 mg/kg × 5, iv, day 28 post treatment, n = 5.
Source text: as §1

Series [3] has as its system P388 murine leukemia tumor cells. Nature of the series: Therapeutic efficacy in P388 tumor bearing CD2F1 mice. As to conditions: for 60-day % Survival: n = 10. The format is in vivo, mouse.
Source text: as §1

For series [4] the following is noted: cited from earlier work.
The subject of series [5] is topoisomerase I purified from human and rodent tumor cell lines. Particulars: enzyme purified from human and rodent tumor cell lines; cited from earlier work.

For the molecule `CCc1c2c(nc3ccc(OC(=O)N4CCC(N5CCCCC5)CC4)cc13)-c1cc3c(c(=O)n1C2)COC(=O)[C@]3(O)CC` [CPT-11, irinotecan], the “% Growth Inhibition” value in series [1] (8 mg/kg × 5, iv) was 47.8%; in series [1] (16 mg/kg × 5, iv), 68.7%; in series [2], 36%. Also, the median survival time in series [3] (4 mg/kg for 5 consecutive days) is on record as 16 days; in series [3] (8 mg/kg for 5 consecutive days), 20 days; in series [3] (16 mg/kg for 5 consecutive days), 22 days. For the same molecule, the “60-day % Survival” value is 0% in series [3] (4 mg/kg × 5, iv) and 0% in series [3] (8 mg/kg × 5, iv).

With `CCc1c2c(nc3ccc(O)cc13)-c1cc3c(c(=O)n1C2)COC(=O)[C@]3(O)CC` [SN38, (+)-(4S)-4,11-diethyl-4,9-dihydroxy-1H-pyrano[3′,4′:6,7]-indolizino[1,2-b]quinoline-3,14(4H,12H)-dione], in series [4], the “solubility in aqueous solutions” value is “exceedingly insoluble”. Moreover, the “potency as an inhibitor of topoisomerase I relative to irinotecan” value in series [5] was “approximately 1000 times”.
